According to PMC6768323, “Adverse Maternal, Fetal, and Postnatal Effects of Hexafluoropropylene Oxide Dimer Acid (GenX) from Oral Gestational Exposure in Sprague-Dawley Rats” (Environmental Health Perspectives, 2019):
Values joined by “and” are separate entries in the source; they are usually repeats but may differ in a detail not shown here. Identical values can stand only once.

What was measured:
[1] = tested on: PPAR signaling pathway genes, fetal liver; assay: Fetal liver (GD18) PPAR gene array, fold induction versus control; maternal oral dosing GD14-18; rows per gene in dose order 1, 3, 10, 30, 62.5, 125, 250, 500 mg/kg/d; format: in vivo, Sprague-Dawley rats
Experimental: A total of three blocks of 15 dams per block were dosed once daily from GD14–18 with either water vehicle (control) or HFPO-DA to evaluate fetal and maternal effects (Figure 1A). The first block of dams was dosed with control, 62.5, 125, 250, or 500mg/kg HFPO-DA ( n=3 dams for each). The second and third blocks of dams were dosed with control, 1, 3, 10, or 30mg/kg HFPO-DA ( n=3 per dose per block). Total sample sizes were n=9 for control, n=6 for 1, 3, 10, 30mg/kg , and n=3 for 62.5, 125, 250, and 500mg/kg HFPO-DA. In the first two blocks, spanning the entire dose range, we evaluated fetal testis testosterone production, fetal testis gene expression, fetal and maternal liver gene expression, fetal body weight, and maternal serum thyroid hormone and lipid concentrations. In the third block, encompassing the lower dose range utilized here, we collected fetal plasma for measuring HFPO-DA concentrations. Across all three blocks we evaluated maternal weight gain during dosing, reproductive output (number of fetuses and resorptions), maternal serum HFPO-DA concentration, and maternal liver weight at necropsy.
For the first two blocks, spanning the full dose range, late gestation (GD18) dams were euthanized by decapitation at ∼2h after the final oral dose [ ∼0830–1000 hours Eastern Standard Time (EST)]. Trunk blood was collected and serum isolated via centrifugation ( 10,000×g for 15 min at 4°C) in vacutainer tubes, transferred to 1.5-mL microcentrifuge tubes and stored at −80°C . Dam liver weight was recorded and a sample of liver tissue was collected into a polypropylene microcentrifuge tube containing 500μL TRIzol Reagent (Invitrogen) on ice. Fetuses were removed and two randomly selected fetuses per litter were weighed. Fetal testes were collected from all male pups with a single testis from the first three males used for determination of ex vivo testosterone production and the remaining testes were homogenized and preserved in TRIzol Reagent for gene expression analysis. The liver was collected from a single, randomly selected fetus per dam/litter for gene expression analysis and transferred to a polypropylene microcentrifuge tube containing 500μL TRIzol Reagent (Invitrogen) on ice. Both dam and fetal liver samples were individually homogenized using a Bullet Blender (Next Advance) with 1-mm zirconium oxide beads, transferred to clean tubes, and stored at −80°C prior to RNA extraction (see below). Ex vivo fetal testis testosterone production was measured as previously reported ([Wilson et al. 2004b]) except the radioimmunoassay (RIA) utilized here was supplied by ALPCO (Catalog No. 72-TESTO-CT2, ALPCO). Briefly, one testis was isolated from each of three separate male fetuses in each litter and incubated in a humidified atmosphere at 37°C for 3 h in 500μL of M-199 media (phenol red–free; Hazelton Biologics, Inc.) supplemented with 10% dextran-coated charcoal-stripped fetal bovine serum (Hyclone Laboratories) in 24-well plates under gentle agitation. After incubation, media were removed and stored in siliconized microcentrifuge tubes at −80°C until RIA analyses, which were performed according to manufacturer specifications.
Gene expression in fetal testes and fetal/maternal livers was assessed using reverse transcriptase real-time PCR of cDNA synthesized from RNA extracted from sample homogenates. RNA extraction was conducted according to TRIzol Reagent manufacturer specifications using chloroform and isopropanol. Following extraction, RNA was purified using the RNeasy Mini Kit (Catalog No. 74104; Qiagen). RNA concentration and purity (260:280 ratio ≥1.8 ) were determined with a NanoDrop 2000 spectrophotometer (Thermo Scientific). For the fetal testes, a 96-well gene array plate was previously custom designed to contain 89 target genes and 3 housekeeping genes, an intra-assay control, a genomic DNA control, a reverse transcriptase control, and a positive PCR control [see Table S1; SABioscience; ([Hannas et al. 2012])]. […]

[2] = set-up: method as in DuPont 2017; details: ref DuPont 2017; cited from earlier work

O=C(O)C(F)(OC(F)(F)C(F)(F)C(F)(F)F)C(F)(F)F (centres unmarked) [HFPO-DA, Hexafluoropropylene oxide dimer acid]
Acox3 ([1]; dose order): 1.1 fold and 1.3 fold and 1.2 fold and 1.0 fold
Acsl3 ([1]; dose order): 1.0 fold and 1.1 fold and 1.2 fold and 1.3 fold and 1.4 fold and 1.5 fold
Acsl4 ([1]; dose order): 1.0 fold and 1.2 fold and 1.5 fold and 1.6 fold and 1.7 fold
Acsl5 ([1]; dose order): 0.8 fold and 0.9 fold and 1.1 fold and 1.0 fold
Apoa1 ([1]; dose order): 1.1 fold and 1.2 fold and 0.9 fold and 1.0 fold and 1.5 fold
Apoa5 ([1]; dose order): 1.4 fold and 1.3 fold and 1.5 fold and 1.6 fold and 1.0 fold
Apoc3 ([1]; dose order): 1.0 fold and 1.1 fold and 1.3 fold and 0.9 fold and 1.2 fold and 1.4 fold
Apoe ([1]; dose order): 1.1 fold and 0.9 fold and 1.0 fold and 1.2 fold
Aqp7 ([1]; dose order): 1.0 fold and 1.3 fold and 1.5 fold and 1.6 fold and 1.7 fold and 1.8 fold
Cd36 ([1]; dose order): 0.8 fold and 0.9 fold
Clu ([1]; dose order): 1.1 fold and 1.4 fold and 1.3 fold and 1.2 fold
Creb1 ([1]; dose order): 1.0 fold and 1.1 fold and 0.9 fold and 0.8 fold
Crebbp ([1]; dose order): 1.0 fold and 1.1 fold and 0.9 fold
Cyp27a1 ([1]; dose order): 1.1 fold and 1.0 fold and 0.9 fold
Dgat1 ([1]; dose order): 1.1 fold and 1.2 fold and 1.4 fold and 1.5 fold
Eln ([1]; dose order): 1.6 fold and 1.0 fold and 1.3 fold and 1.1 fold and 1.5 fold and 1.4 fold and 1.2 fold
Ep300 ([1]; dose order): 1.0 fold and 1.2 fold and 0.9 fold
Fabp2 ([1]; dose order): 0.9 fold and 1.0 fold and 1.1 fold and 0.7 fold
Fabp3 ([1]; dose order): 1.0 fold and 1.2 fold and 1.1 fold and 0.8 fold
Fabp4 ([1]; dose order): 1.4 fold and 1.5 fold and 1.2 fold and 0.9 fold and 1.0 fold
Fabp5 ([1]; dose order): 1.1 fold and 1.0 fold and 1.3 fold and 1.4 fold and 1.5 fold and 1.8 fold
Fabp7 ([1]; dose order): 1.0 fold and 1.3 fold and 1.4 fold and 1.8 fold and 1.9 fold
Fads2 ([1]; dose order): 1.1 fold and 1.2 fold and 1.6 fold and 1.8 fold and 2.0 fold and 2.2 fold and 2.1 fold
Fgr ([1]; dose order): 0.9 fold and 1.3 fold and 1.0 fold and 1.1 fold and 0.8 fold
Gk ([1]; dose order): 1.4 fold and 1.9 fold and 1.7 fold and 2.0 fold and 1.0 fold and 1.2 fold
Hif1a ([1]; dose order): 1.0 fold and 1.1 fold and 1.2 fold
Hspd1 ([1]; dose order): 1.1 fold and 1.0 fold and 1.2 fold and 1.3 fold
Ilk ([1]; dose order): 1.0 fold and 1.2 fold and 1.1 fold
Klf10 ([1]; dose order): 1.0 fold and 1.1 fold and 1.5 fold and 1.7 fold and 1.6 fold and 1.4 fold
Lpin1 ([1]; dose order): 1.0 fold and 1.2 fold and 0.8 fold and 0.9 fold and 1.3 fold
Lpl ([1]; dose order): 1.0 fold and 1.1 fold and 1.2 fold and 1.4 fold and 1.3 fold and 1.5 fold
Med1 ([1]; dose order): 1.0 fold and 1.1 fold and 0.9 fold
Mmp9 ([1]; dose order): 1.2 fold and 1.5 fold and 1.0 fold and 1.1 fold and 0.9 fold
Ncoa3 ([1]; dose order): 1.0 fold and 1.3 fold and 0.9 fold
Ncoa6 ([1]; dose order): 1.0 fold and 1.1 fold and 0.9 fold
Nr1h3 ([1]; dose order): 1.1 fold and 1.2 fold and 1.0 fold
Pck2 ([1]; dose order): 0.9 fold and 1.1 fold and 1.0 fold
Pdpk1 ([1]; dose order): 0.9 fold and 1.1 fold and 0.8 fold and 1.0 fold
Pltp ([1]; dose order): 1.5 fold and 1.0 fold and 1.4 fold and 1.1 fold
Ppara ([1]; dose order): 1.1 fold and 1.2 fold and 0.9 fold and 1.4 fold and 1.3 fold
Ppard ([1]; dose order): 0.9 fold and 1.4 fold and 1.1 fold and 1.0 fold and 1.2 fold
Ppargc1a ([1]; dose order): 0.9 fold and 1.0 fold and 0.7 fold and 0.6 fold and 0.5 fold
Ppargc1b ([1]; dose order): 1.1 fold and 1.3 fold and 1.2 fold and 0.9 fold and 1.0 fold
Pprc1 ([1]; dose order): 1.0 fold and 1.1 fold and 0.9 fold and 1.2 fold
Pten ([1]; dose order): 0.9 fold and 1.0 fold and 1.1 fold and 0.8 fold
Rxra ([1]; dose order): 1.0 fold and 1.2 fold and 1.1 fold
Rxrb ([1]; dose order): 1.0 fold and 1.2 fold and 1.1 fold and 0.9 fold
Sirt1 ([1]; dose order): 0.9 fold and 1.0 fold and 0.8 fold
Slc27a1 ([1]; dose order): 1.0 fold and 1.1 fold and 0.9 fold
Slc27a4 ([1]; dose order): 1.0 fold and 1.2 fold and 0.9 fold
Slc27a5 ([1]; dose order): 1.2 fold and 1.1 fold and 0.9 fold and 1.0 fold
Slc27a6 ([1]; dose order): 1.4 fold and 1.1 fold and 1.0 fold and 1.3 fold and 1.7 fold and 1.5 fold
Smarcd3 ([1]; dose order): 1.2 fold and 1.0 fold and 0.9 fold and 1.1 fold
Sorbs1 ([1]; dose order): 1.2 fold and 1.5 fold and 1.3 fold and 0.9 fold and 1.1 fold and 1.0 fold
Tgs1 ([1]; dose order): 0.9 fold and 1.0 fold and 0.8 fold
Txnip ([1]; dose order): 0.9 fold and 1.1 fold and 1.2 fold
number of significantly up-regulated PPAR pathway genes ([1]; fetal liver, ANOVA p<0.0001): 28 genes
dose with up-regulated PPAR pathway gene expression in maternal and fetal livers ([1]; oral GD14-18): ≥ 1 mg/kg
highest detected plasma concentration from a worker [2]: 0.169 µg/mL
